PubChem BioAssay (NCI)
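GI50 is the concentration that inhibits growth by half. TGI marks complete inhibition of growth.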

Tests used:
Experiment in all cases: inhibition of tumour cell growth, NCI panel, 384-well format; in the data active = GI50 below about 0.43 µM; inactive = the rest
A498 renal = test system: A498 renal
OVCAR-4 ovarian = test system: OVCAR-4 ovarian
HCT-116 colon = test system: HCT-116 colon
EKVX NSCLC = test system: EKVX NSCLC
OVCAR-3 ovarian = test system: OVCAR-3 ovarian
SK-MEL-28 melanoma = test system: SK-MEL-28 melanoma
NCI-H322M lung = test system: NCI-H322M lung
HCC-2998 colon = test system: HCC-2998 colon
SNB-75 CNS = test system: SNB-75 CNS
UACC-257 melanoma = test system: UACC-257 melanoma
HOP-92 NSCLC = test system: HOP-92 NSCLC
K-562 leukemia = test system: K-562 leukemia
MOLT-4 leukemia = test system: MOLT-4 leukemia
IGROV1 ovarian = test system: IGROV1 ovarian
DU-145 prostate = test system: DU-145 prostate
T-47D breast = test system: T-47D breast
MALME-3M melanoma = test system: MALME-3M melanoma
OVCAR-8 ovarian = test system: OVCAR-8 ovarian
HCT-15 colon = test system: HCT-15 colon
HS 578T breast = test system: HS 578T breast
NCI-H460 NSCLC = test system: NCI-H460 NSCLC
NCI-H23 lung = test system: NCI-H23 lung
SF-268 CNS = test system: SF-268 CNS
HL-60(TB) leukemia = test system: HL-60(TB) leukemia
RXF 393 renal = test system: RXF 393 renal
BT-549 breast = test system: BT-549 breast
U251 glioblastoma = test system: U251 glioblastoma
TK-10 renal = test system: TK-10 renal
A549 NSCLC = test system: A549 NSCLC
MDA-MB-468 breast = test system: MDA-MB-468 breast
CAKI-1 renal = test system: CAKI-1 renal
CCRF-CEM leukemia = test system: CCRF-CEM leukemia
SNB-19 CNS = test system: SNB-19 CNS
SF-539 CNS = test system: SF-539 CNS
OVCAR-5 ovarian = test system: OVCAR-5 ovarian
UO-31 renal = test system: UO-31 renal
SF-295 CNS = test system: SF-295 CNS
SK-OV-3 ovarian = test system: SK-OV-3 ovarian
SN12C renal = test system: SN12C renal
SW-620 colon = test system: SW-620 colon
NCI/ADR-RES ovarian = test system: NCI/ADR-RES ovarian
MDA-MB-231 breast = test system: MDA-MB-231 breast
786-0 renal = test system: 786-0 renal
COLO 205 colon = test system: COLO 205 colon
HOP-62 NSCLC = test system: HOP-62 NSCLC
NCI-H226 lung = test system: NCI-H226 lung
RPMI-8226 leukemia = test system: RPMI-8226 leukemia
MDA-MB-435 melanoma = test system: MDA-MB-435 melanoma
NCI-H522 lung = test system: NCI-H522 lung
SR leukemia = test system: SR leukemia
HT29 colon = test system: HT29 colon
M14 melanoma = test system: M14 melanoma
KM12 colon = test system: KM12 colon
MCF7 breast = test system: MCF7 breast
SK-MEL-5 melanoma = test system: SK-MEL-5 melanoma
SK-MEL-2 melanoma = test system: SK-MEL-2 melanoma
PC-3 prostate = test system: PC-3 prostate
UACC-62 melanoma = test system: UACC-62 melanoma
ACHN renal = test system: ACHN renal

O=C1CCC(N2Cc3cc(CNC(=O)C(F)(F)c4ccc(Cl)cc4)ccc3C2=O)C(=O)N1 (stereo not given)
32.2 µM: TGI (BT-549 breast)
active: GI50 (HCC-2998 colon) 0.0908 µM | GI50 (HOP-92 NSCLC) 0.21 µM | GI50 (MOLT-4 leukemia) < 0.01 µM | GI50 (T-47D breast) 0.0216 µM | GI50 (MALME-3M melanoma) 0.101 µM | GI50 (OVCAR-8 ovarian) 0.059 µM | GI50 (HS 578T breast) 0.0781 µM | GI50 (HL-60(TB) leukemia) < 0.01 µM | GI50 (BT-549 breast) 0.0613 µM | GI50 (MDA-MB-468 breast) < 0.01 µM | GI50 (CCRF-CEM leukemia) < 0.01 µM | GI50 (SW-620 colon) 0.0885 µM | GI50 (MDA-MB-231 breast) 0.087 µM | GI50 (COLO 205 colon) 0.142 µM
0.015 µM: TGI (CCRF-CEM leukemia)
17.8 µM: TGI (T-47D breast)
inactive: GI50 (A498 renal) > 100 µM | GI50 (OVCAR-4 ovarian) > 100 µM | GI50 (HCT-116 colon) > 100 µM | GI50 (EKVX NSCLC) > 100 µM | GI50 (OVCAR-3 ovarian) > 100 µM | GI50 (SK-MEL-28 melanoma) > 100 µM | GI50 (NCI-H322M lung) > 100 µM | GI50 (SNB-75 CNS) 0.463 µM | GI50 (UACC-257 melanoma) > 100 µM | GI50 (K-562 leukemia) 68.4 µM | GI50 (IGROV1 ovarian) 0.568 µM | GI50 (DU-145 prostate) > 100 µM | GI50 (HCT-15 colon) 0.744 µM | GI50 (NCI-H460 NSCLC) > 100 µM | GI50 (NCI-H23 lung) > 100 µM | GI50 (SF-268 CNS) > 100 µM | GI50 (RXF 393 renal) > 100 µM | GI50 (U251 glioblastoma) > 100 µM | GI50 (TK-10 renal) > 100 µM | GI50 (A549 NSCLC) > 100 µM | GI50 (CAKI-1 renal) > 100 µM | GI50 (SNB-19 CNS) > 100 µM | GI50 (SF-539 CNS) > 100 µM | GI50 (OVCAR-5 ovarian) > 100 µM | GI50 (UO-31 renal) > 100 µM | GI50 (SF-295 CNS) > 100 µM | GI50 (SK-OV-3 ovarian) > 100 µM | GI50 (SN12C renal) > 100 µM | GI50 (NCI/ADR-RES ovarian) 24.7 µM | GI50 ([…]-0 renal) > 100 µM | GI50 (HOP-62 NSCLC) 0.835 µM
> 100 µM: TGI (A498 renal) | TGI (OVCAR-4 ovarian) | TGI (HCT-116 colon) | TGI (EKVX NSCLC) | TGI (OVCAR-3 ovarian) | TGI (SK-MEL-28 melanoma) | TGI (NCI-H322M lung) | TGI (HCC-2998 colon) | TGI (SNB-75 CNS) | TGI (UACC-257 melanoma) | TGI (HOP-92 NSCLC) | TGI (K-562 leukemia) | TGI (IGROV1 ovarian) | TGI (DU-145 prostate) | TGI (MALME-3M melanoma) | TGI (OVCAR-8 ovarian) | TGI (HCT-15 colon) | TGI (HS 578T breast) | TGI (NCI-H460 NSCLC) | TGI (NCI-H23 lung) | TGI (SF-268 CNS) | TGI (RXF 393 renal) | TGI (U251 glioblastoma) | TGI (TK-10 renal) | TGI (A549 NSCLC) | TGI (CAKI-1 renal) | TGI (SNB-19 CNS) | TGI (SF-539 CNS) | TGI (OVCAR-5 ovarian) | TGI (UO-31 renal) | TGI (SF-295 CNS) | TGI (SK-OV-3 ovarian) | TGI (SN12C renal) | TGI (SW-620 colon) | TGI (NCI/ADR-RES ovarian) | TGI (MDA-MB-231 breast) | TGI (786-0 renal) | TGI (COLO 205 colon) | TGI (HOP-62 NSCLC)
0.0106 µM: TGI (HL-60(TB) leukemia)
0.0301 µM: TGI (MDA-MB-468 breast)
0.0133 µM: TGI (MOLT-4 leukemia)

Nc1nc(OCc2ccccc2)c2[nH]cnc2n1
88.9 µM: TGI (CCRF-CEM leukemia)
78.4 µM: TGI (SR leukemia)
37.8 µM: TGI (RPMI-8226 leukemia)
78.3 µM: TGI (HL-60(TB) leukemia)
90.5 µM: TGI (IGROV1 ovarian)
43.7 µM: TGI (HS 578T breast)
79.1 µM: TGI (MALME-3M melanoma)
50.1 µM: TGI (SK-OV-3 ovarian)
91.9 µM: TGI (A498 renal)
55.9 µM: TGI (CAKI-1 renal)
88.7 µM: TGI (RXF 393 renal)
65.8 µM: TGI (SK-MEL-2 melanoma)
inactive: GI50 (A498 renal) 19.6 µM | GI50 (NCI-H226 lung) 29.3 µM | GI50 (OVCAR-4 ovarian) 64.4 µM | GI50 (RPMI-8226 leukemia) 18.5 µM | GI50 (MDA-MB-435 melanoma) 52.4 µM | GI50 (EKVX NSCLC) 43.3 µM | GI50 (OVCAR-3 ovarian) 69.1 µM | GI50 (NCI-H522 lung) 20.8 µM | GI50 (SK-MEL-28 melanoma) 66.9 µM | GI50 (NCI-H322M lung) 57.5 µM | GI50 (HCC-2998 colon) 30.8 µM | GI50 (SR leukemia) 30.9 µM | GI50 (SNB-75 CNS) 19.6 µM | GI50 (UACC-257 melanoma) 61.6 µM | GI50 (HT29 colon) 53.3 µM | GI50 (M14 melanoma) 30.4 µM | GI50 (HOP-92 NSCLC) 36.8 µM | GI50 (MOLT-4 leukemia) 28.9 µM | GI50 (IGROV1 ovarian) 25.7 µM | GI50 (DU-145 prostate) 52.3 µM | GI50 (KM12 colon) 66.1 µM | GI50 (MCF7 breast) 56.2 µM | GI50 (T-47D breast) 34.5 µM | GI50 (MALME-3M melanoma) 30.9 µM | GI50 (OVCAR-8 ovarian) 66.4 µM | GI50 (SK-MEL-5 melanoma) 27.9 µM | GI50 (HCT-15 colon) 28.4 µM | GI50 (HS 578T breast) 16.6 µM | GI50 (SK-MEL-2 melanoma) 37.2 µM | GI50 (NCI-H460 NSCLC) 37.8 µM | GI50 (NCI-H23 lung) 31.8 µM | GI50 (SF-268 CNS) 66.3 µM | GI50 (HL-60(TB) leukemia) 30.2 µM | GI50 (RXF 393 renal) 32.5 µM | GI50 (BT-549 breast) 26.9 µM | GI50 (U251 glioblastoma) 38.3 µM | GI50 (PC-3 prostate) 55.2 µM | GI50 (TK-10 renal) 15.8 µM | GI50 (A549 NSCLC) 64.5 µM | GI50 (MDA-MB-468 breast) 25 µM | GI50 (CAKI-1 renal) 20.8 µM | GI50 (CCRF-CEM leukemia) 28.4 µM | GI50 (UACC-62 melanoma) 31.4 µM | GI50 (SF-539 CNS) 34.7 µM | GI50 (OVCAR-5 ovarian) 70.4 µM | GI50 (SK-OV-3 ovarian) 23.2 µM | GI50 (MDA-MB-231 breast) 34.6 µM | GI50 (ACHN renal) 46.1 µM | GI50 ([…]-0 renal) 35.9 µM | GI50 (COLO 205 colon) 65.7 µM | GI50 (HOP-62 NSCLC) 36.7 µM
95.8 µM: TGI (M14 melanoma)
60.7 µM: TGI (NCI-H522 lung) | TGI (TK-10 renal)
61 µM: TGI (MDA-MB-468 breast)
76.5 µM: TGI (SNB-75 CNS)
78.5 µM: TGI (BT-549 breast)
80.7 µM: TGI (NCI-H226 lung)
